Measured values: patent publication US12162861B2, “Dopamine D3 receptor selective antagonists/partial agonists; method of making; and use thereof” (THE UNITED STATES OF AMERICA, AS REPRESENTED BY THE …, priority 2016, dated 2024)

Experiments:
human D2R = biological target: T1, human D2R (Homo sapiens, UniProt P14416); test: Radioligand competition binding, [3H]N-methylspiperone, D2R; settings: Table 1A; ratio of Ki values
T1 construct: expressed in transfected cells; host or cells: HEK293
Protocol: Binding at dopamine D2-like receptors was determined using previously described methods. (Chen et al. “Tranylcypromine substituted cis-hydroxycyclobutylnaphthamides as potent and selective dopamine D(3) receptor antagonists.” J. Med. Chem. 2014, 57, 4962-4968) Membranes were prepared from HEK293 cells expressing human D2R, D3R or D4R, grown in a 50:50 mix of DMEM and Ham's F12 culture media, supplemented with 20 mM HEPES, 2 mM L-glutamine, 0.1 mM non-essential amino acids, 1× antibiotic/antimycotic, 10% heat-inactivated fetal bovine serum, and 200 μg/mL hygromycin (Life Technologies, Grand Island, NY) and kept in an incubator at 37° C. and 5% CO2. Upon reaching 80-90% confluence, cells were harvested using pre-mixed Earle's Balanced Salt Solution (EBSS) with 5 μM EDTA (Life Technologies) and centrifuged at 3000 rpm for 10 min at 21° C. The supernatant was removed and the pellet was resuspended in 10 mL hypotonic lysis buffer (5 mM MgCl2·6H2O, 5 mM Tris, pH 7.4 at 4° C.) and centrifuged at 20,000 rpm for 30 min at 4° C. The pellet was then resuspended in fresh EBSS buffer made from 8.7 g/L Earle's Balanced Salts without phenol red (US Biological, Salem, MA), 2.2 g/L sodium bicarbonate, pH to 7.4. A Bradford protein assay (Bio-Rad, Hercules, CA) was used to determine the protein concentration and membranes were diluted to 500 μg/mL and stored in a −80° C. freezer for later use.
(§1) Radioligand competition binding experiments were conducted using thawed membranes. Test compounds were freshly dissolved in 30% DMSO and 70% H2O to a stock concentration of 100 μM. To assist the solubilization of free-base compounds, 10 μl of glacial acetic acid was added along with the DMSO. Each test compound was then diluted into 13 half-log serial dilutions using 30% DMSO vehicle; final test concentrations ranged from 10 μM to 10 pM. Previously frozen membranes were diluted in fresh EBSS to a 100 μg/mL (for hD2R or hD3R) or 200 μg/mL (hD4R) stock for binding. Radioligand competition experiments were conducted in glass tubes containing 300 μl fresh EBSS buffer with 0.2 mM sodium metabisulfite, 50 μl of diluted test compound, 100 μl of membranes (10 μg total protein for hD2R or hD3R, 20 μg total protein for hD4R), and 50 μl of [^3H]N-methylspiperone (0.4 nM final concentration; Perkin Elmer). Nonspecific binding was determined using 10 μM butaclamol (Sigma-Aldrich, St. Louis, MO) and total binding was determined with 30% DMSO vehicle. All compound dilutions were tested in triplicate and the reaction incubated for one hour at room temperature. The reaction was terminated by filtration through Whatman GF/B filters, presoaked for one hour in 0.5% polyethylenimine, using a Brandel R48 filtering manifold (Brandel Instruments, Gaithersburg, MD). The filters were washed 3 times with 3 mL of ice cold EBSS buffer and transferred to scintillation vials. 3 mL CytoScint liquid scintillation cocktail (MP Biomedicals, Solon, OH) was added and vials were counted using a Perkin Elmer Tri-Carb 2910 TR liquid scintillation counter (Waltham, MA). IC50 values for each compound were determined from dose-response curves and Ki values were calculated using the Cheng-Prusoff equation; these analyses were performed using GraphPad Prism version 5.00 for Windows (GraphPad Software, San Diego, CA). Reported Ki values were determined from least three independent experiments.

human D3R = biological target: T2, human D3R (Homo sapiens, UniProt P35462); test: Radioligand competition binding, [3H]N-methylspiperone, D3R; settings: Table 1A; for D4/D3: ratio of Ki values; for D3R K ± SEM (nM): HEK 293 cells transfected with hD3R, [3H]N-methylspiperone
T2 construct: expressed in transfected cells; host or cells: HEK293
T2 sequence (P35462 whole entry): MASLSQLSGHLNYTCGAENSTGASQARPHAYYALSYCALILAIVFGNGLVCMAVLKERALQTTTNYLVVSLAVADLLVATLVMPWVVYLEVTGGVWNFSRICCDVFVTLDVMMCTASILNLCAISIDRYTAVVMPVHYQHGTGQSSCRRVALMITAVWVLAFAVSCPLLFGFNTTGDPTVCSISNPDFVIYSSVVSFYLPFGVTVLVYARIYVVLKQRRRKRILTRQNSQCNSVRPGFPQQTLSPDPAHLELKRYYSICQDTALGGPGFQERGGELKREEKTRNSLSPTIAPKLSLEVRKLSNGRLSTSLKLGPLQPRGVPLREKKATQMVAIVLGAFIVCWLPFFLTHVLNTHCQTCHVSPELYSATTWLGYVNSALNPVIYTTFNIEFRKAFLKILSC
Protocol: Binding at dopamine D2-like receptors was determined using previously described methods. […] Upon reaching 80-90% confluence, cells were harvested using pre-mixed Earle's Balanced Salt Solution (EBSS) with 5 μM EDTA (Life Technologies) and centrifuged at 3000 rpm for 10 min at 21° C. The supernatant was removed and the pellet was resuspended in 10 mL hypotonic lysis buffer (5 mM MgCl2·6H2O, 5 mM Tris, pH 7.4 at 4° C.) and centrifuged at 20,000 rpm for 30 min at 4° C. The pellet was then resuspended in fresh EBSS buffer made from 8.7 g/L Earle's Balanced Salts without phenol red (US Biological, Salem, MA), 2.2 g/L sodium bicarbonate, pH to 7.4. A Bradford protein assay (Bio-Rad, Hercules, CA) was used to determine the protein concentration and membranes were diluted to 500 μg/mL and stored in a −80° C. freezer for later use.
as §1, with “3 mL CytoScint liquid scintillation cocktail (MP Biomedicals, Solon, OH) was added and vials were counted using a Perkin Elmer Tri-Carb 2910 TR liquid scintillation counter (Waltham, MA).” left out

human dopamine D3R = biological target: T3, human dopamine D3R (Homo sapiens, UniProt P35462); test: D3R mitogenesis assay in CHO cells; assay type: cell-based; settings: stimulation of mitogenesis, CHO cells with human D3R; read-out: Agonist EC50 ± SEM
T3 construct: expressed in transfected cells; host or cells: CHO
T3 sequence (P35462 whole entry): as above

T1 sequence (P14416 whole entry): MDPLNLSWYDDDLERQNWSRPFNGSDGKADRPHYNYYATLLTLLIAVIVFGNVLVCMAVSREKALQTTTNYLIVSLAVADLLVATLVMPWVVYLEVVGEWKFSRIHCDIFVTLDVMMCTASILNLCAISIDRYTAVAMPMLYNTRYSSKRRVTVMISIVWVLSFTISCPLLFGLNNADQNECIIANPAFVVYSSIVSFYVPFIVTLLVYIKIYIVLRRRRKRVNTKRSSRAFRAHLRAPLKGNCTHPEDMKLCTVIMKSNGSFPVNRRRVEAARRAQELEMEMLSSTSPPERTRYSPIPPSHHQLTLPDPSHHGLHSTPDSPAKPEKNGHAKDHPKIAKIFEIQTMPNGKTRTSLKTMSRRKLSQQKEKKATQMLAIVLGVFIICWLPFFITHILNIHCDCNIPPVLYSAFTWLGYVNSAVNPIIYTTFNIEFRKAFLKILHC

| D4/D2 (human D2R) | D4/D3 (human D3R) | D3R K ± SEM (nM) (human D3R) | EC50 (human dopamine D3R) | Structure (SMILES) |
| --- | --- | --- | --- | --- |
| 61 | 2352 |  |  | CCc1cccc(N2CCN(CCCCNC(=O)c3cc4ccccc4[nH]3)CC2)c1Cl [Compound 18, N-(4-(4-(2-Chloro-3-ethylphenyl)piperazin-1-yl)butyl)-1H-indole-2-carboxamide] |
| 56 | 2327 | subnanomolar binding affinities |  | CCc1cccc(N2CCN(CCCCNC(=O)c3cc4ccccc4o3)CC2)c1Cl [Compound 20, N-(4-(4-(2-Chloro-3-ethylphenyl)piperazin-1-yl)butyl)benzofuran-2-carboxamide] |
| 58.5 | 2671 |  |  | CCc1cccc(N2CCN(CC(O)CCNC(=O)c3cn4ccccc4n3)CC2)c1Cl (centres unmarked) [Compound 23, N-(4-(4-(2-Chloro-3-ethylphenyl)piperazin-1-yl)-3-hydroxybutyl)imidazo[1,2-a]pyridine-2-carboxamide] |
| 30.8 | 152 |  |  | CCc1cccc(N2CCN(CCCCNC(=O)c3c(C)nc4sccn34)CC2)c1Cl [Compound 24, N-(4-(4-(2-chloro-3-ethylphenyl)piperazin-1-yl)butyl)-6-methylimidazo[2,1-b]thiazole-5-carboxamide] |
| 43.4 | 853 |  |  | CCc1cccc(N2CCN(CCCCNC(=O)c3nc(C)c[nH]3)CC2)c1Cl [Compound 26, N-(4-(4-(2-Chloro-3-ethylphenyl)piperazin-1-yl)butyl)-4-methyl-1H-imidazole-2-carboxamide] |
| 13.1 | 175 |  |  | CCc1cccc(N2CCN(CC(O)CCNC(=O)c3nc(C)c[nH]3)CC2)c1Cl (centres unmarked) [Compound 27, N-(4-(4-(2-Chloro-3-ethylphenyl)piperazin-1-yl)-3-hydroxybutyl)-4-methyl-1H-imidazole-2-carboxamide] |
| 38 | 3065 |  | > 8.3 µM | CCc1cc(Cl)c(OC)c(N2CCN(CCCCNC(=O)c3cc4ccccc4[nH]3)CC2)c1 [Compound 28, N-(4-(4-(3-Chloro-5-ethyl-2-methoxyphenyl)piperazin-1-yl)butyl)-1H-indole-2-carboxamide] |

More lines, now with the values behind:

| Structure (SMILES) | D4/D2 (human D2R) | D4/D3 (human D3R) | D3R K ± SEM (nM) (human D3R) | EC50 (human dopamine D3R) |
| --- | --- | --- | --- | --- |
| CCc1cccc(N2CCN(CC(O)CCNC(=O)c3cc4ccccc4o3)CC2)c1Cl (centres unmarked) [Compound 21, N-(4-(4-(2-Chloro-3-ethylphenyl)piperazin-1-yl)-3-hydroxybutyl)benzofuran-2-carboxamide] | 15 | 2417 | subnanomolar binding affinities |  |
| CCc1cccc(N2CCN(CCCCNC(=O)c3cn4ccccc4n3)CC2)c1Cl [Compound 22, N-(4-(4-(2-chloro-3-ethylphenyl)piperazin-1-yl)butyl)imidazo[1,2-a]pyridine-2-carboxamide] | 145.2 | 2482 |  |  |
| CCc1c[nH]c(C(=O)NCCCCN2CCN(c3cccc(CC)c3Cl)CC2)n1 [Compound 25, N-(4-(4-(2-Chloro-3-ethylphenyl)piperazin-1-yl)butyl)-4-ethyl-1H-imidazole-2-carboxamide] | 40.0 | 439 |  |  |
| CCc1cc(Cl)c(OC)c(N2CCN(CC(O)CCNC(=O)c3cc4ccccc4o3)CC2)c1 (centres unmarked) [Compound 31, N-(4-(4-(3-Chloro-5-ethyl-2-methoxyphenyl)piperazin-1-yl)-3-hydroxybutyl)benzofuran-2-carboxamide] | 3.3 | 146 |  |  |
| CCc1cccc(N2CCN(C/C=C/CNC(=O)c3nc(C)c[nH]3)CC2)c1Cl [Compound 35, (E)-N-(4-(4-(2-Chloro-3-ethylphenyl)piperazin-1-yl)but-2-en-1-yl)-4-methyl-1H-imidazole-2-carboxamide] | 31.2 | 393 |  |  |
| CCc1cccc(N2CCN(CCC(O)CNC(=O)c3cc4ccccc4[nH]3)CC2)c1Cl (centres unmarked) [Compound 40, N-(4-(4-(2-Chloro-3-ethylphenyl)piperazin-1-yl)-2-hydroxybutyl)-1H-indole-2-carboxamide] | 44.7 | 1525 |  |  |
